In patent US7858790B2, “Modulators of muscarinic receptors” (Vertex Pharmaceuticals Incorporated, priority 2006, dated 2010):

Assays:
[1] = molecular target: T1, M1 muscarinic receptor (Homo sapiens, UniProt P11229); test: Functional mobilization of intracellular calcium (FLIPR) in CHO cells expressing M1 muscarinic receptor; format: cell-based; conditions: for M1 Activity: CHO cells expressing M1, calcium mobilization; for Emax: CHO, 100% efficacy is the maximum response obtained with the Carbachol control
T1 construct: expressed in transfected cells; host or cells: CHO (M1-CHO recombinant cell line)
T1 sequence (P11229 1-460): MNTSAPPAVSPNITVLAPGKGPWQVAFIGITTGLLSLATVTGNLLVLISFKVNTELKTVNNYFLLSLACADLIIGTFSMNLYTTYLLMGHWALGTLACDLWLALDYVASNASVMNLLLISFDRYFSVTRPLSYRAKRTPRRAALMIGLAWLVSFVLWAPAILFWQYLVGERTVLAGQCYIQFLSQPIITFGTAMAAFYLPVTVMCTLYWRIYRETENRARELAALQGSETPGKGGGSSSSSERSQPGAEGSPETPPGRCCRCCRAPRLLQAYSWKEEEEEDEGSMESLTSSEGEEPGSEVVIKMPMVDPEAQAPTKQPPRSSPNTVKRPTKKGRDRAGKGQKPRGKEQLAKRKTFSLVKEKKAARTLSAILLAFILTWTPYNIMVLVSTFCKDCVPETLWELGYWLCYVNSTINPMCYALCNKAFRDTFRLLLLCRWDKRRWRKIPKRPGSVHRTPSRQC
Experimental: (§1) VI. Assays for Detecting and Measuring Inhibition Properties of Compounds Functional Mobilization of Intracellular Calcium to Determine Muscarinic Receptor Activity:
(§2) CHO cells expressing muscarinic receptors (M1 to M5) are grown as monolayers in tissue culture flasks at 37° C. in a humidified atmosphere containing 5% CO2 and passaged every 3-5 days. The growth media is Dulbecco's modified eagles medium (DMEM, Gibco Cat# 12430-054), containing 25 mM Hepes and supplemented with Fetal Bovine Serum (Hyclone, cat# SH30071.03), 0.1 mM of MEM non-essential amino acids (GIBCO, Cat# 11140-050), 1 mM MEM Sodium Pyruvate (GIBCO Cat# 11360-070) and 100 units/ml of Penicillin G and 100 μg/ml of Streptomycin (GIBCO Cat# 15140-122). The recombinant muscarinic receptor cell lines are grown under antibiotic pressure with media containing 25 μg/ml zeocin and 500 μg/ml G418 (M1-CHO), 4 μg/ml puromycin, 50 μg/ml zeocin and 2.5 μg/ml blasticidin (M2 and M4-CHO) or 50 μg/ml zeocin and 4 μg/ml puromycin (M3 and M5-CHO).
(§3) Cells are harvested at 80-90% confluence using Versene (GIBCO Cat# 15040-066), collected by centrifugation and seeded 18-24 hours prior to running the calcium assay at a density of 5,000-10,000 cells/well in […], clear-bottomed 384-well plates (BD Biocoat, poly-D-lysine, Cat#356663). The day of the experiment, the cells are washed with a plate washer (Bioteck Instruments, ELX 405) using bath buffer (140-mM NaCl, 4.5-mM KCl, 2-mM CaCl2, 1-mM MgCl2, 10-mM Hepes-Na, 10-mM Glucose, pH 7.4, with NaOH) containing 1 mM Probenecid. Next, the calcium dye Fluo-3 (25 μl/well of Fluo-3 μM at 4 μM, Molecular Probes F-1241, in Bath 1 buffer containing 1 mM Probenecid) is added to the 25 μl of Bath 1 remaining in each well after the plate wash and the dye is loaded at 37° C. in the tissue culture incubator for 60-90 min. The fluorescent dye is removed using the plate washer with Bath 1 containing 1 mM Probenecid, leaving 25 μl/well of this solution after the wash. Alternatively, cells can be loaded with the calcium indicator from Molecular Devices (Calcium 3 Assay Reagents, Cat # R7181) adding 5 μl of a 5× solution dye in Bath 1 containing 1 mM Probenecid (10 ml per dye flask cat# R7182 to generate a solution 20×) to 20 μl of the same buffer. After loading for 60 min, the experiment can be run without having to remove the dye.
(§4) Compounds are prepared at a 2× fold concentration in a 96-well plate (round bottom, Costar Corning cat# 3656), by reconstituting the pre-spotted compounds in bath 1 containing 1 mM probenecid. The final concentration DMSO is 0.5%, and the amount of DMSO is normalized across the assay plate. To determine an agonist action of the compounds on muscarinic receptors, the reconstituted compounds are added (25 μl compound/well) to the cell assay plate (containing 25 μl/well) using the multi-channel robotic system of the FLIPR 3 Instrument (Molecular Devices, Sunnyvale, Calif.). To determine a functional inhibitory-action of the compounds on muscarinic receptors, the reconstituted compounds are added (25 μl compound/well) to the assay plate and pre-incubated for 15 min prior to adding 25 μl of Carbachol at 3× the EC80 for each muscarinic subtype. Alternatively, the compounds can be co-applied simultaneously with the agonist. In both assay modes, the fluorescence is recorded for 60 sec (excitation wavelength is […] and emission wavelength 540 nm) using the FLIPR 3 instrument.
(§5) The potency, efficacy and selectivity of the muscarinic compounds were evaluated by screening the compound activity across the whole family (M1 to M5 cells). Compounds were also screened for activity on other proteins such as other GPCRs and ion channels to determine selectivity on M4 receptors.
(§6) Examples of activities and efficacies of the muscarinic compounds of formulae (I, Ia, and Ib) on modulating M1 and M4 receptors are shown below in Table 8. […]

[2] = molecular target: T2, M4 muscarinic receptor (Homo sapiens, UniProt P08173); test: Functional mobilization of intracellular calcium (FLIPR) in CHO cells expressing M4 muscarinic receptor; format: cell-based; conditions: for M4 Activity: CHO cells expressing M4, calcium mobilization; for Emax: CHO, 100% efficacy is the maximum response obtained with the Carbachol control
T2 construct: expressed in transfected cells; host or cells: CHO (M4-CHO recombinant cell line)
T2 sequence (P08173 1-479): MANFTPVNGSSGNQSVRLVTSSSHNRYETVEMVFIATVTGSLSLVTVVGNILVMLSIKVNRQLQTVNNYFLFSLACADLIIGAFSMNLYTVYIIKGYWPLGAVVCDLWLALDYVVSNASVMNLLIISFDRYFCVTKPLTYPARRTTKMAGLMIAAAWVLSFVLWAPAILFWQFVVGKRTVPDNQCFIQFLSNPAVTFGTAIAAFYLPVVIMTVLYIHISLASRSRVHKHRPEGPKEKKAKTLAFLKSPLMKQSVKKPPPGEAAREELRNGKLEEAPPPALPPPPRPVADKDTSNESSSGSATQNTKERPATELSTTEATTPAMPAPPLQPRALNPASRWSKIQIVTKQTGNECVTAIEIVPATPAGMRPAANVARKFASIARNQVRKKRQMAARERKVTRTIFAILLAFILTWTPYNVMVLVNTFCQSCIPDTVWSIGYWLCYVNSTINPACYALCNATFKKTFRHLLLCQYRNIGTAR
Experimental: as §1, §2, §3, §4, §5, §6

| Structure (SMILES) | M1 Activity [1] | Emax [1] [%] | M4 Activity [2] | Emax [2] [%] |
| --- | --- | --- | --- | --- |
| CNC(=O)C1=CC2(CCN(CC3CCCCC3)CC2)c2ccccc21 [Compound No. 6] | + (activity was measured to be greater than 10.0 μM) | 25 to 100 | +++ (activity was measured to be less than 2.0 μM) | 25 to 100 |
| CN(C)C(=O)C1=CC2(CCN(C3CCCCC3)CC2)c2ccccc21 [compound 61] | + (activity was measured to be greater than 10.0 μM) | < 25 | +++ (activity was measured to be less than 2.0 μM) | 25 to 100 |
| CNC(=O)C1=CC2(CCN(CCC3CCOCC3)CC2)c2ccccc21 [compound 8] | + (activity was measured to be greater than 10.0 μM) | 25 to 100 | + (activity was measured to be greater than 10.0 μM) | < 25 |
| CCC(CC)NC(=O)C1=CC2(CCN(C3CCCCC3)CC2)c2ccccc21 [compound 73] | + (activity was measured to be greater than 10.0 μM) | < 25 | ++ (activity was measured to be from 2.0 μM to 10.0 μM) | 25 to 100 |
| CC(C)NC(=O)C1=CC2(CCN(CC3CC4C=CC3C4)CC2)c2ccccc21 (centres unmarked) [compound 66] | + (activity was measured to be greater than 10.0 μM) | < 25 | +++ (activity was measured to be less than 2.0 μM) | 25 to 100 |
| C=CCOC(=O)N1CCC(N2CCC3(C=C(C(=O)NC(CC)CC)c4ccccc43)CC2)CC1 [compound 24] | + (activity was measured to be greater than 10.0 μM) | 25 to 100 | ++ (activity was measured to be from 2.0 μM to 10.0 μM) | 25 to 100 |
| CCOC(=O)N1CCC(N2CCC3(CC=C(C(=O)N4CCCC4)c4ccccc43)CC2)CC1 [compound 43] | +++ (activity was measured to be less than 2.0 μM) | 25 to 100 | +++ (activity was measured to be less than 2.0 μM) | 25 to 100 |
| CNC(=O)C1=CC2(CCN(CCC(C)C)CC2)c2ccccc21 [compound 15] | + (activity was measured to be greater than 10.0 μM) | 25 to 100 | +++ (activity was measured to be less than 2.0 μM) | 25 to 100 |
| CN(C)C(=O)C1=CC2(CCN(CC3CC4C=CC3C4)CC2)c2ccccc21 (centres unmarked) [compound 67] | + (activity was measured to be greater than 10.0 μM) | 25 to 100 | +++ (activity was measured to be less than 2.0 μM) | 25 to 100 |
| CN(C)C(=O)C1=CC2(CCN(CCC(C)(C)C)CC2)c2ccccc21 [compound 56] | + (activity was measured to be greater than 10.0 μM) | < 25 | +++ (activity was measured to be less than 2.0 μM) | 25 to 100 |
| CC(C)(C)CCN1CCC2(C=C(C(=O)NC3CCCCC3)c3ccccc32)CC1 [compound 25] | ++ (activity was measured to be from 2.0 μM to 10.0 μM) | 25 to 100 | + (activity was measured to be greater than 10.0 μM) | < 25 |
| O=C(C1=CCC2(CCN(CC3CC4C=CC3C4)CC2)c2ccccc21)N1CCCC1 (centres unmarked) [compound 34] | +++ (activity was measured to be less than 2.0 μM) | 25 to 100 | + (activity was measured to be greater than 10.0 μM) | < 25 |
| O=C(C1=CCC2(CCN(C3C[C@@H]4CC[C@@H]3C4)CC2)c2ccccc21)N1CCCC1 (some centres unmarked) [compound 29] | + (activity was measured to be greater than 10.0 μM) | < 25 | + (activity was measured to be greater than 10.0 μM) | < 25 |
| CC(C)(C)CCN1CCC2(CC=C(C(=O)N3CCCC3)c3ccccc32)CC1 [compound 11] | ++ (activity was measured to be from 2.0 μM to 10.0 μM) | 25 to 100 | ++ (activity was measured to be from 2.0 μM to 10.0 μM) | < 25 |
| O=C(O)C1=CC2(CCN(CC3CCCCC3)CC2)c2ccccc21 [compound 54] | + (activity was measured to be greater than 10.0 μM) | < 25 | + (activity was measured to be greater than 10.0 μM) | < 25 |
| CNC(=O)C1=CC2(CCN(CC3CC4C=CC3C4)CC2)c2ccccc21 (centres unmarked) [compound 69] | +++ (activity was measured to be less than 2.0 μM) | 25 to 100 | +++ (activity was measured to be less than 2.0 μM) | 25 to 100 |
| CN(C)C(=O)C1=CC2(CCN(C3C[C@@H]4CC[C@@H]3C4)CC2)c2ccccc21 (some centres unmarked) [compound 64] | + (activity was measured to be greater than 10.0 μM) | < 25 | +++ (activity was measured to be less than 2.0 μM) | 25 to 100 |
| CCOC(=O)N1CCC(N2CCC3(C=C(C(=O)NC(CC)CC)c4ccccc43)CC2)CC1 [compound 28] | ++ (activity was measured to be from 2.0 μM to 10.0 μM) | 25 to 100 | +++ (activity was measured to be less than 2.0 μM) | 25 to 100 |
| CN(C)C(=O)C1=CCC2(CCN(C3C[C@@H]4CC[C@@H]3C4)CC2)c2ccccc21 (some centres unmarked) [compound 74] | + (activity was measured to be greater than 10.0 μM) | < 25 | ++ (activity was measured to be from 2.0 μM to 10.0 μM) | < 25 |
| CCCC(C)NC(=O)C1=CC2(CCN(CC3CC4C=CC3C4)CC2)c2ccccc21 (centres unmarked) [compound 50] | + (activity was measured to be greater than 10.0 μM) | < 25 | +++ (activity was measured to be less than 2.0 μM) | 25 to 100 |
